Measured values taken from US11793746B2, “Intense skin hydration systems and methods” (priority 2020, dated 2023).

Legend:
[1] = system: collagen I and collagen III; test: Collagen deposition by light and electron microscopy; conditions: 20,000×; vs untreated control
Method: Skin tissue treated with GC-100 in the absence of ascorbic acid was prepared to illustrate collagen deposition. Tissue samples were first pretreated with Bouin's solution to intensify subsequent staining results. Samples were then treated with Mason's trichrome stain, which combines the plasma stain (chromotrope 2R) and connective tissue fiber stain)aniline blue) in a phosphotungstic acid solution to which glacial acetic acid was added. The collagen absorbs the tungsten ion, which may be visualized due to the complexed aniline blue.
Staining for specific collagen types was achieved using specific standardized indirect immunoperoxidase attains for collagen I and III, respectively.
Collagen deposition assessments are based on the visual interpretation of two endpoints: Collagen I and Collagen III. An untreated control and a tissue sample treated with GC-100 were stained to reveal collagen I. A similar method of comparison was used to illustrate collagen III deposition in control and treated tissue.
Tissues used for light microscopy were place in Karnovsky's fixative for additional evaluation using electron microscopy standard technique. Magnification power of 20,000× was used for visualization of the lower dermis.

photodamaged human skin = test: Pilot open label study on photoaged skin: epidermal thickness by high frequency ultrasound; assay type: in vivo; conditions: for % change (epidermal thickness, ultrasound): range over panelists
Method: A pilot open label study was conducted to establish the efficacy of GC-100 on photoaged skin in a clinical setting.
Primary endpoints for this study were as follows: • 1. Epidermal skin thickness was measured using high frequency ultrasound. • 2. Panelists regard for their overall appearance and any changes noted in the appearance of their wrinkles, lentigines, facial acne and pore size were used in qualitative analysis. In addition, panelists were asked to comment on irritation, novel rashes, and other side effects during the study period.
An open label, six week pilot study to examiner the regenerative effect of GC-100 was performed on 15 women with mild to moderate dermatoheliosis as defined by clinical examination. Exclusion criteria selected against patients with a history of retinoic acid use, dermabrasion, or chemical peel application within 6 months prior to study onset. However, all patients had used one or more of these products previously. After appropriate informed consent was obtained, baseline measurements of epidermal thickness using high frequency untrasonography (20 MHz and above) were collected using skin at the infraorbital prominence. Three measurements were taken at each site and averaged to yield a result. GC-100 was applied to the face and neck according to the following schedule: • Weekly: GC-100 applied in mask vehicle • Twice daily: GC-100 applied through lotion vehicle
The patient population was divided into two groups, where Group I was evaluated after 24 hours of product application, and Group II was evaluated at the conclusion of weeks 2, 4 and 6. A panelist questionnaire was completed during each evaluation session.

hepatocytes = test: Cellular O2 consumption measured with an oxygraph; assay type: cell-based; conditions: 3% GC-100
Source text: Increased cellular respiration may be equated with more efficient use of cellular reserves (e.g., polysaccharides & triglycerides) and improved elimination of metabolic waste. The end result of enhanced cellular respiration is cellular regeneration and restoration of the organ system being evaluated. The activation of cellular respiration can be evaluated using an oxygraph. Since the oxygraph electrode response is directly proportional to the concentration of dissolved O2 in the test media, a measure of cellular O2 consumption can be calculated to yield information on changes in cellular respiration. […] FIG. 4 is a graph showing hepatocyte oxygen consumption in the presence of GC-100 at various concentrations.

lysyl oxidase = test: Lysyl oxidase activity in wound-margin biopsies after surgical and xylene injury; assay type: in vivo, nude mice
Method: The dermotrophic effect of GC-100 was also determined using lysyl oxidase levels as an endpoint to determine whether GC-100 can effect the concentration of lysyl oxidase in wounded tissues and to establish whether GC-100 can accelerate the wound healing process using qualitative measurements.
Nude mice were chosen because their skin (and their lack of hair) is more similar to human skin than are other commonly used laboratory test animals. The test population was divided into 4 groups of 10 nude mice for the purpose of examining the best application sequence for GC-100 relative to injury. Group definitions are as follows:
A surgical wound measuring 2.54 cm in length and penetrating the dermis was made on the right hind quarter of all test subjects after appropriate anesthesia was administered.
A second index of injury using 1% xylene was used in all test subjects after creation of the surgical wound. Using a sterile tuberculin syringe, 0.1 mL of a 1% xylene solution was injected subcutaneously into the region of the surgical wound. The final size of the injury measured 25×20 mm^2.
The mice in Groups II, III, and IV were divided randomly after physical and chemical injury into 2 subgroups of 5 mice each for application of either GC-100 0.5% or 1%. Pretreatment for Group II and IV mice was conducted one hour prior to any injury, where GC-100 0.5% and 1% was rubbed into the right hind quarter of the designated mice for 50 cycles using a nylon glove. Post-treatment for mice in Group III and IV with GC-100 0.5% and 1% was conducted immediately after injury.
Wound recovery was determined over 30 days using cutaneous punch biopsies that were taken on post injury day 4, and at the conclusion of weeks 2, 3, and 4 from the wound margins. Biopsy specimens were analyzed for lysyl oxidase activity using a standard assay. Results are shown in Table 3 and FIG. 6, which is a graph showing percent lysyl oxidase as a function of treatment schedule and GC-100 concentration.

[2] = Radial forearm free-flap, trophic effect; assay type: in vivo
[3] = Group I, evaluated after 24 hours of product application
[4] = Group II, evaluated at weeks 2, 4 and 6

Substance: H-Lys-Pro-NH2 [GC-100]
- collagen fibers in lower dermis, electron microscopy [1]: collagen fiber density is increased
- Mean % (change in epidermal thickness) (photodamaged human skin; [3]): 8.5%
- % change (epidermal thickness, ultrasound) (photodamaged human skin; [3]): 3.4-19.2%
- Mean % (change in epidermal thickness) (photodamaged human skin; [4]): 7.95%
- % change (epidermal thickness, ultrasound) (photodamaged human skin; [4]): 2.9-14%
- stratum corneum compaction spongiosis, granular cell layer thickness and epidermal thickness vs baseline (photodamaged human skin; both treatment groups, high frequency ultrasound): significant increase over baseline
- average increase in epidermal thickness (photodamaged human skin; six weeks after application): 8%
- average increase in O2 consumption (hepatocytes): 282%±30
- % increase O2 consumption (hepatocytes; 57 mg cells): 310%
- Final consumption, ha (hepatocytes; 57 mg cells): 1.259 nm O2/min/mg cells
- % increase O2 consumption (hepatocytes; 58 mg cells): 260%
- Final consumption, ha (hepatocytes; 58 mg cells): 1.003 nm O2/min/mg cells
- % increase O2 consumption (hepatocytes; 60 mg cells): 240%
- Final consumption, ha (hepatocytes; 60 mg cells): 0.865 nm O2/min/mg cells
- % increase O2 consumption (hepatocytes; 63 mg cells): 280%
- Final consumption, ha (hepatocytes; 63 mg cells): 0.879 nm O2/min/mg cells
- % increase O2 consumption (hepatocytes; 64 mg cells): 320%
- Final consumption, ha (hepatocytes; 64 mg cells): 0.954 nm O2/min/mg cells
- % lysyl oxidase (lysyl oxidase; Group II pretreatment, 0.5% GC-100, Day 4): 1.4%
- % lysyl oxidase (lysyl oxidase; Group II pretreatment, 0.5% GC-100, Week 2): 10.2%
- % lysyl oxidase (lysyl oxidase; Group II pretreatment, 0.5% GC-100, Week 3): 13.4%
- % lysyl oxidase (lysyl oxidase; Group II pretreatment, 0.5% GC-100, Week 4): 45.9%
- % lysyl oxidase (lysyl oxidase; Group II pretreatment, 1% GC-100, Day 4): 5.2%
- % lysyl oxidase (lysyl oxidase; Group II pretreatment, 1% GC-100, Week 2): 18.2%
- % lysyl oxidase (lysyl oxidase; Group II pretreatment, 1% GC-100, Week 3): 23.4%
- % lysyl oxidase (lysyl oxidase; Group II pretreatment, 1% GC-100, Week 4): 45.9%
- % lysyl oxidase (lysyl oxidase; Group III post-treatment, 0.5% GC-100, Day 4): 1.2%
- % lysyl oxidase (lysyl oxidase; Group III post-treatment, 0.5% GC-100, Week 2): 3.2%
- % lysyl oxidase (lysyl oxidase; Group III post-treatment, 0.5% GC-100, Week 3): 19.8%
- % lysyl oxidase (lysyl oxidase; Group III post-treatment, 0.5% GC-100, Week 4): 48.7%
- % lysyl oxidase (lysyl oxidase; Group III post-treatment, 1% GC-100, Day 4): 5.3%
- % lysyl oxidase (lysyl oxidase; Group III post-treatment, 1% GC-100, Week 2): 11.5%
- % lysyl oxidase (lysyl oxidase; Group III post-treatment, 1% GC-100, Week 3): 19.7%
- % lysyl oxidase (lysyl oxidase; Group III post-treatment, 1% GC-100, Week 4): 49.6%
- % lysyl oxidase (lysyl oxidase; Group IV pre- & post-treatment, 0.5% GC-100, Day 4): 21%
- % lysyl oxidase (lysyl oxidase; Group IV pre- & post-treatment, 0.5% GC-100, Week 2): 30.1%
- % lysyl oxidase (lysyl oxidase; Group IV pre- & post-treatment, 0.5% GC-100, Week 3): 42.4%
- % lysyl oxidase (lysyl oxidase; Group IV pre- & post-treatment, 0.5% GC-100, Week 4): 52.8%
- % lysyl oxidase (lysyl oxidase; Group IV pre- & post-treatment, 1% GC-100, Day 4): 47.2%
- % lysyl oxidase (lysyl oxidase; Group IV pre- & post-treatment, 1% GC-100, Week 2): 50.5%
- % lysyl oxidase (lysyl oxidase; Group IV pre- & post-treatment, 1% GC-100, Week 3): 58.8%
- % lysyl oxidase (lysyl oxidase; Group IV pre- & post-treatment, 1% GC-100, Week 4): 62.7%
- acceleration of generalized healing ([2]; free flap full-thickness skin graft model, skin overlying a muscle belly): 50%
- physical examination of treated flap skin ([2]; superior half of flap treated three times over 9 days from postoperative day 14): noticeably thicker, smoother and less erythematous
